# Like-named read-outs stand apart in the source and are kept apart here.
# Legend:
# [1] = Plasma bioavailability and elimination half-life of RAP-103 (species not stated); assay type: in vivo; details: oral, i.p., ss, and IV dosing
# [2] = system: STZ-induced diabetic neuropathic pain
# Description: Chronic pain development was determined with behavior and molecular/cellular testing and inflammatory reactions in Streptozotocin (STZ)-induced diabetic rats treated with RAP-103.
# (§1) Induction and assessment of diabetes in rats: Rats were fasted overnight and given a single intraperitoneal injection of STZ (60 mg/kg, Sigma-Aldrich) in citrate buffer (pH 4.5) to induce type I diabetes. The induction of diabetes was confirmed 72 h post-injection by blood glucose levels (Contour® blood glucose diagnostic kit, Bayer HealthCare, Canada). Body weight and blood glucose levels were measured before and 3 days post-STZ injection and once a week for three weeks post-diabetes induction. Only rats with blood glucose concentration consistently higher than 300 mg/dl were used for the study. Rats used for the study were monitored for persistent mechanical and cold allodynia (up to five months post-induction) and only animals with persistent pain were used.
# This solution was prepared freshly for each experiment and kept for 8 days (duration of one experiment) at room temperature. Appropriate concentration for each dose was adjusted accordingly.
# Treatment paradigms: Autoclaved water (vehicle) or RAP-103 (0.004, 0.02, 0.1 or 0.5 mg/kg b.w.) was administered daily for 8 days by oral gavage to rats with stable mechanical and cold allodynia (n=5 H2O; n=7 RAP-103).
# Assessment of neuropathic pain: Tactile allodynia, mechanical sensitivity was assessed using calibrated. Animals were placed in plexiglass boxes on an elevated metal mesh floor and allowed 60 min for habituation before testing. A series of von Frey filaments with logarithmically incrementing stiffness (Stoelting) was applied perpendicular to the midplantar region of the hind paw. The 50% paw withdrawal threshold was determined using Dixon's up-down method. Withdrawal thresholds of both paws were averaged as one single value per animal.
# Cold Allodynia: was assessed using the same apparatus as the von Frey test. Rats were allowed to adapt to the testing environment for at least 10 min. Then, a drop (50 μl) of acetone was applied with a glass syringe fitted with a blunted needle at the centre of the plantar face of a hind paw. Responses were monitored during 1 min after acetone application and were graded according to a 4-point scale: 0, no response; 1, quick withdrawal, flick or stamp of the paw; 2, prolonged withdrawal or repeated flicking of the paw; 3, repeated flicking of the paw with persistent licking directed at the ventral side of the paw. Cumulative scores were then obtained by summing the four scores for each rat, the minimum score being 0 (no response to any of the four trials) and the maximum possible score being 12 (repeated flicking and licking of paws on each of the four trials). Rats were habituated to the testing environment. […] All data is presented as means±SEM. Statistical analysis was performed by two-way ANOVA followed by Bonferroni post-tests. The criterion for statistical significance was p<0.05.
# [3] = system: mRNAs encoding CCL2, CCL3, CCR2, CCR5, IL1β, and TNFα
# [4] = Brain entry and pharmacokinetics of RAP-103 after oral gavage and IV dosing; assay type: in vivo, rats and guinea pigs
# [5] = system: STZ-induced diabetic neuropathic pain; details: oral administration for 7 days, FIG. 4
# Description: as §1, with “used. […]” for “used.”
# Cold Allodynia: was assessed using the same apparatus as the von Frey test. Rats were allowed to adapt to the testing environment for at least 10 min. Then, a drop (50 μl) of acetone was applied with a glass syringe fitted with a blunted needle at the centre of the plantar face of a hind paw. Responses were monitored during 1 min after acetone application and were graded according to a 4-point scale: 0, no response; 1, quick withdrawal, flick or stamp of the paw; 2, prolonged withdrawal or repeated flicking of the paw; 3, repeated flicking of the paw with persistent licking directed at the ventral side of the paw. […]
# [6] = Plasma pharmacokinetics and acute tolerability of RAP-103 in non-human primates; assay type: in vivo, Rhesus macaques (Macaca mulatta)
# Description: In non-human primates (rhesus monkeys) RAP-103 was dosed once on Day 1 by intravenous bolus injection at 1 mg/kg and plasma levels determined. […] Drug in plasma after a single IV dose (1 mg/Kg) was still measurable at anticipated therapeutic levels 96 hrs. post-dose in non-human primates as shown in FIG. 2B.
# [7] = system: post-incisional mechanical allodynia; details: RAP-103 0.5 mg/kg i.p.
# From the text: Data are expressed as mean±standard error of the mean (S.E.M.), and p<0.05 was accepted as statistically significant.
# stress from PPSP = details: oral pill, daily administration for one week
# Description: A subject is diagnosed with stress from PPSP. A subject is prescribed a dosing regimen of a pharmaceutical composition. The pharmaceutical composition comprises a therapeutically effective amount of RAP-103. RAP-103 is administered orally as a pill to treat the stress from PPSP.
# obesity = details: oral, daily administration for 3 weeks
# Description: A subject is diagnosed with obesity. The subject is prescribed a dosing regimen of a pharmaceutical composition. The pharmaceutical composition comprises a therapeutically effective amount of RAP-103. RAP-103 is administered orally to treat obesity.
# CX3CR1 = CX3CR1 (Homo sapiens, UniProt P49238); details: CX3CL1 2.5 nM, FIG. 8
# Description: All peptides were purified to >95% homogeneity and verified by HPLC isolation, amino acid analysis, and mass spectroscopy. Peptides were dissolved in sterile water and stored as frozen (−20° C.) aliquots at 0.1 mM until use. Chemotaxis was assayed in 96-well plates (NeuroProbe, Cabin John, MD) with […] pore size, PVP-free membranes. Purified human monocytes (>95%) prepared from healthy adult human donors by centrifugal elutriation (>95% pure) were resuspended in chemotaxis assay buffer (DMEM supplemented with 0.1% BSA) at a density of 2×10^6 cells/ml. Cells were labelled with 1.0 μM Calcein AM (Invitrogen) for 30 minutes at 37° C., 5% CO2. Following incubation, cells were washed once and resuspended in chemotaxis assay buffer (DMEM, 1 mg/ml BSA, 25 mM Hepes) at a density of 2×10^6 cells/ml. […] The filter plate ([…] pore size, PVP-free membrane) was snapped on over the filled wells and the monocytes were loaded onto the upper filter surface ([…] in 25 μl). […] At the conclusion of the test period, non-migrating cells were wiped off the upper filter surface and relative fluorescence units (RFUs) of the migrating cells from the lower surface determined by bottom reading in a spectrometer (M5 SpectraMax) at 485/530 nm (Ex/Em). Triplicate determinations were made and results are expressed as the mean Relative Fluorescence Units as depicted in FIG. 8.
# plasma cytokines = experiment: Plasma cytokine measurements in patients treated with DAPTA (capillary electrophoresis and ELISA); assay type: in vivo, humans
# From the text: The specific cytokines IL-1β, IL-10 and IL-12 have been identified as imbalanced following total knee replacement surgeries which increases risk for persistent post-operative pain. Measurement of these cytokines may be used to predict response to therapy, such as treatment by any of the peptides, salts thereof, or compositions of these, including those herein. Since the administration of the peptide DAPTA normalizes multiple plasma cytokines associated with PPSP then DAPTA and other analogs as we have described may be used to treat chronic pain conditions, specifically PPSP. Five HIV patients received DAPTA, 3 mgs/day, by metered nasal spray for 6 to 8 weeks (mean 7+0.6 wks). Patients were not taking other concurrent anti-pain or anti-retroviral therapies. At the beginning and end of the study period heparinized blood was collected and immediately clarified by centrifugation. Plasma aliquots were made and stored frozen at −70 C° for further testing. All sample testing was done on blinded samples at independent testing centers.
# Cytokine measurements in patients treated with DAPTA were made after capillary electrophoresis isolation of individual cytokine peaks, followed by enzyme-linked immunoassay using specific antibodies. […] Separated chemical compounds appear as peaks with different migration times in an electropherogram. The purified sample peaks were individually collected and concentration determined by a quantitative enzyme-linked immunosorbent assay (ELISA) using specific antibodies to determine the analyte concentration.
# [8] = partial nerve ligation and diabetic pain
# [9] = plasma, five HIV patients, 3 mgs/day nasal spray, 6 to 8 weeks
# Chain of CX3CR1 (P49238 whole entry): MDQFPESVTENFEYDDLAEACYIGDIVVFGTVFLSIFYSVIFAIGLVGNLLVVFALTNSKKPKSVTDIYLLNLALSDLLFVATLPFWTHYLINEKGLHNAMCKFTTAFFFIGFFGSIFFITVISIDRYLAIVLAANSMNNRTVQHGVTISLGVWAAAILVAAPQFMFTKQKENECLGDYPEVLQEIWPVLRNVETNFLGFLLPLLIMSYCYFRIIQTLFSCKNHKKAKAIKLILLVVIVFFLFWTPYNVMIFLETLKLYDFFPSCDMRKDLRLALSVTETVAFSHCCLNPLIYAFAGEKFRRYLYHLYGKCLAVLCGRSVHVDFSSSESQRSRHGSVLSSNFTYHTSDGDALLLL
compound,measurement,setting,value
"C[C@H](O)[C@@H](N)C(=O)N[C@@H](C(=O)N[C@H](CC(N)=O)C(=O)N[C@H](Cc1ccc(O)cc1)C(=O)N[C@@H](C(=O)O)[C@H](C)O)[C@H](C)O [RAP-103, All D-peptide-Thr-Thr-Asn-Tyr-Thr]",half-life,"[1]; in vivo, read-out: half-life (HL) elimination (converted)",~2.7 h
same,plasma bioavailability,[1],significant plasma bioavailability
same,effect on mechanical allodynia by dose,[2]; 0.004 mg/kg daily oral,not
same,effect on mechanical allodynia by dose,[2]; 0.02 mg/kg daily oral,effective
same,effect on mechanical allodynia by dose,[2]; 0.1 mg/kg daily oral,effective
same,effect on mechanical allodynia by dose,[2]; 0.5 mg/kg daily oral,effective
same,time until reversal of hypersensitivity became significant,[2]; daily oral gavage,24 to 48 h
same,chemokine receptor CCR2,"[3]; neuropathic pain, FIG. 5",lowered
same,chemokine receptor CCR5,"[3]; neuropathic pain, FIG. 5",lowered
same,spinal cord mRNA encoding cytokines and chemokines,"[3]; oral administration for 7 days versus vehicle (H20), FIG. 5",reductions
same,CCL3,[3]; [8],significantly reduced
same,IL-1β,[3]; [8],significantly reduced
same,TNFα,[3]; [8],significantly reduced
same,brain entry by oral compared to IV dosing,[4]; FIG. 2A,preferentially entered the brain by oral compared to IV dosing
same,brain entry,[4]; IV or oral gavage dosing,quickly entered the brain
same,persistence at therapeutic levels in brain,"[4]; IV or oral gavage dosing, FIG. 2A",at least 24 hrs
same,brain entry compared to plasma levels,[4]; in vivo,preferentially enters the brain compared to plasma levels
same,cold allodynia,[5],reductions
same,Cmax and AUC 0-T in male versus female monkeys,[6]; 1 mg/kg,comparable
same,RAP-103-related changes in clinical observations or body weights,[6]; over seven days after dosing,no acute toxicity
same,time post-dose at which drug in plasma was still measurable at anticipated therapeutic levels,"[6]; single IV dose 1 mg/Kg, FIG. 2B",≥ 96 h
same,increase of the potency of morphine,[7],over 2 fold
same,stress and pain in patient suffering from PPSP,stress from PPSP,reduced
same,subject's weight,obesity,decreases
all-D-ASTTTNYT [RAP-310],"CX3CR1 mediated human monocyte chemotaxis, % of control migration",CX3CR1; 0.01 pM,38 % of control migration
same,"CX3CR1 mediated human monocyte chemotaxis, % of control migration",CX3CR1; 1 pM,24 % of control migration
dASTTTNYT-NH2 [DAPTA],"cytokines IL-4, IL-10, IL-12 and IL-13","plasma cytokines; intranasal dosing, P<0.005",increased significantly
same,"plasma levels of IL-1β, IL-6, IL-8, and TNFα","plasma cytokines; intranasal dosing, P<0.005",significant reductions
same,IL-1β % CHANGE BASELINE to POST-DRUG,"plasma cytokines; plasma, **p < .005",−46%**
same,IL-2 % CHANGE BASELINE to POST-DRUG,"plasma cytokines; plasma, **p < .005",+395** %
same,IL-4 % CHANGE BASELINE to POST-DRUG,"plasma cytokines; plasma, **p < .005",+448** %
same,IL-6 % CHANGE BASELINE to POST-DRUG,"plasma cytokines; plasma, **p < .005",−28%**
same,IL-8 % CHANGE BASELINE to POST-DRUG,"plasma cytokines; plasma, **p < .005",−30%**
same,IL-10 % CHANGE BASELINE to POST-DRUG,"plasma cytokines; plasma, **p < .005",+350** %
same,IL-12 % CHANGE BASELINE to POST-DRUG,"plasma cytokines; plasma, **p < .005",+363** %
same,IL-13 % CHANGE BASELINE to POST-DRUG,"plasma cytokines; plasma, **p < .005",+416** %
same,TNFα % CHANGE BASELINE to POST-DRUG,"plasma cytokines; plasma, **p < .005",−23%**
same,IL-1β CYTOKINE MEAN ± s.e.m. Post-Treatment,plasma cytokines; [9],174 ± 26 pgs/ml
same,IL-2 CYTOKINE MEAN ± s.e.m. Post-Treatment,plasma cytokines; [9],57 ± 9 pgs/ml
same,IL-4 CYTOKINE MEAN ± s.e.m. Post-Treatment,plasma cytokines; [9],28 ± 8 pgs/ml
same,IL-6 CYTOKINE MEAN ± s.e.m. Post-Treatment,plasma cytokines; [9],130 ± 21 pgs/ml
same,IL-8 CYTOKINE MEAN ± s.e.m. Post-Treatment,plasma cytokines; [9],144 ± 76 pgs/ml
same,IL-10 CYTOKINE MEAN ± s.e.m. Post-Treatment,plasma cytokines; [9],45 ± 5 pgs/ml
same,IL-12 CYTOKINE MEAN ± s.e.m. Post-Treatment,plasma cytokines; [9],33 ± 7 pgs/ml
same,IL-13 CYTOKINE MEAN ± s.e.m. Post-Treatment,plasma cytokines; [9],30 ± 9 pgs/ml
same,TNFα CYTOKINE MEAN ± s.e.m. Post-Treatment,plasma cytokines; [9],260 ± 67 pgs/ml
